Values joined by “and” are separate entries in the source; they are usually repeats but may differ in a detail not shown here. Equal values may be shown once. Read-outs that look alike come from different tables or passages of the source.
Experiments:
SARS-CoV-2-nLUC [1] = experiment: microbe, parasite or virus in culture; assay type: cell-based; details: for EC50: Severe acute respiratory syndrome coronavirus 2, Vero C1008, 24 h, VeroE6, 24 h, Fig 1G, Fig 5B, read-out: EC50
SARS-CoV-2 = assay type: cell-based; set-up: TOA: unit not given here
in vitro = details: African green monkey
viral RdRp = viral RdRp (Severe acute respiratory syndrome coronavirus 2, UniProt P0DTD1); experiment: In vitro RdRp activity assay (RNA extension); assay type: biochemical, SARS-CoV-2; details: LNF 0.1, 1 and 10 μM; TEMPOL 100 μM
[2] = system: SARS-CoV-2 strain USA-WA1/2020; assay type: in vivo, mouse; details: mouse, in vivo
[3] = system: SARS-CoV-2 strain USA-WA1/2020; assay type: in vivo, mouse; details: mouse, in vivo; remark: listed apart in the source
[4] = system: FTase (HDJ2 farnesylation); experiment: HDJ2 electrophoretic mobility shift (Western blot); assay type: cell-based; details: 24 h treatment
SARS-CoV-2-nLUC [5] = assay type: cell-based; details: Nirmatrelvir 5 uM, Lonafarnib 0 uM
SARS-CoV-2-nLUC [6] = assay type: cell-based

With `Cn1cncc1[C@@](N)(c1ccc(Cl)cc1)c1ccc2c(c1)c(-c1cccc(Cl)c1)cc(=O)n2C` [Tipifarnib, tipifarnib] the EC50 (SARS-CoV-2-nLUC [1]) was 8.86 µM, the Replication (SARS-CoV-2-nLUC [1]; Tipifarnib, log concentration 0.273001) was 115.708 and 115.2 and 116.296 and 113.383 and the Replication (SARS-CoV-2-nLUC [1]; Tipifarnib, log concentration 0.875061) was 62.3306 and 62.0856 and 61.494 and 61.1331. For the same compound, the Replication (SARS-CoV-2-nLUC [1]; Tipifarnib, log concentration -0.630089) was 101.05 and 102.091 and 101.412 and 103.944, the Replication (SARS-CoV-2-nLUC [1]; Tipifarnib, log concentration -1.23215) was 100.484 and 100.389 and 101.92 and 99.313 and the “time-of-addition result” value (SARS-CoV-2) was “modest effect on the early stage of infection, while the efficacy was much higher in the late stage”. The TOA (SARS-CoV-2; treatment window (0,2)) was 76.7425 and 75.484 and 113.203 and 99.7613 and 81.3458 and 84.3089 and 102.68 and 108.689, the TOA (SARS-CoV-2; treatment window (-2,0)) was 92.86 and 92.659 and 88.2304 and 87.5224 and 122.157 and 114.273 and 92.7843 and 93.347 and the TOA (SARS-CoV-2; treatment window (-2,2)) was 31.6226 and 35.7452 and 33.0851 and 30.5839 and 34.705 and 34.7924 and 25.2067 and 23.5518. It also gave a CC50 at 24 h (in vitro) of over 30 µM.
For `CC1(C)CC(O)CC(C)(C)N1[O]` [TEMPOL], the “polymerase activity, primer extension” value (viral RdRp) was “inhibited”.
In the case of `CCC(CC)COC(=O)[C@H](C)N[P@](=O)(OC[C@H]1O[C@@](C#N)(c2ccc3c(N)ncnn23)[C@H](O)[C@@H]1O)Oc1ccccc1` [RDV, Remdesivir], the “time-of-addition result” value (SARS-CoV-2) is reported as “minimal effect when added for a limited duration at early time points, but showed maximum efficacy when it was added later after infection”, the “composite clinical score” value [2] is reported as “much improved disease parameters” and the “lung viral titer” value [3] is reported as “did not show much reduction in viral titers”.
In the case of `COC(=O)[C@H](CCSC)NC(=O)c1ccc(NC[C@@H](N)CS)cc1-c1ccccc1` [FTI-277], the “anti-FTase activity, HDJ2 shift” value [4] is reported as “weaker anti-FTase activity”, the Replication (SARS-CoV-2-nLUC [1]; FTI-277, log concentration 0.670941) is reported as 89.119 and 77.5271 and 84.1138 and 103.187 and the Replication (SARS-CoV-2-nLUC [1]; FTI-277, log concentration 1.273) is reported as 92.4526 and 80.5819 and 108.059 and 113.995. For the same compound, the Replication (SARS-CoV-2-nLUC [1]; FTI-277, log concentration 1.87506) was 83.8498 and 84.554 and 94.5905 and 116.747, the Replication (SARS-CoV-2-nLUC [1]; FTI-277, log concentration -0.232149) was 89.4553 and 85.664 and 88.5087 and 105.35 and the EC50 (SARS-CoV-2-nLUC [1]) was 110 µM. The “time-of-addition result” value (SARS-CoV-2) was “modest effect on the early stage of infection, while the efficacy was much higher in the late stage”, the TOA (SARS-CoV-2; treatment window (0,24)) was 1.616 and 2.237 and 1.147 and 1.155 and 1.238 and 1.196 and 1.435 and the TOA (SARS-CoV-2; treatment window (2,4)) was 73.8837 and 74.2661 and 52.3189 and 51.5089 and 53.0507 and 54.4857 and 76.2725 and 76.8029. For the same compound, the TOA (SARS-CoV-2; treatment window (-2,0)) was 151.258 and 149.655 and 121.084 and 123.07 and 140.174 and 141.115 and 96.719 and 94.1082, the TOA (SARS-CoV-2; treatment window (-2,2)) was 54.1321 and 53.7538 and 48.4664 and 48.121 and 49.0338 and 47.603 and 41.7688 and 40.1735 and the CC50 at 24 h (in vitro) was 220 µM.
For `CC(C)(C)[C@H](NC(=O)C(F)(F)F)C(=O)N1C[C@H]2[C@@H]([C@H]1C(=O)N[C@H](C#N)C[C@@H]1CCNC1=O)C2(C)C` [NRTV, nirmatrelvir], the Response (SARS-CoV-2-nLUC [5]) was 21.0635 and 36.2768 and 23.2893, the Response (SARS-CoV-2-nLUC [6]) was 96.7462 and 94.1773 and 94.981 and the Response (SARS-CoV-2-nLUC [6]; Lonafarnib 0 uM, Nirmatrelvir 0.3125 uM, sheet S3B, replicates) was 50.9786 and 35.7701 and 31.2174. For the same compound, the Response (SARS-CoV-2-nLUC [6]; Lonafarnib 0 uM, Nirmatrelvir 0.625 uM, sheet S3B, replicates) was 89.9445 and 77.1784 and 77.0959, the Response (SARS-CoV-2-nLUC [6]; Lonafarnib 0 uM, Nirmatrelvir 2.5 uM, sheet S3B, replicates) was 97.3124 and 96.7918 and 96.5986 and the Response (SARS-CoV-2-nLUC [6]; Lonafarnib 0 uM, Nirmatrelvir 5 uM, sheet S3B, replicates) was 97.4859 and 97.2147 and 96.9835.
